Test results reported in patent publication US20230057568A1, “COMPOUNDS FOR TREATING FAMILIAL DYSAUTONOMIA” (PTC THERAPEUTICS, INC., priority 2019, published 2023).

Test system: Elongator complex protein 1 (ELP1, also referred to as IKBKAP)
Assay: IKBKAP-HTRF Assay
Format: cell-based, human
Conditions: FD patient-derived fibroblasts GM04589, 48 hours incubation; for EC2x for IKBKAP protein expression (concentration producing two times the amount of IKBKAP protein vs DMSO vehicle control): 7-point concentration curve; for MFI (maximum fold increase in IKBKAP protein abundance relative to the vehicle control): HTRF
Procedure: The assay is used for the quantitative determination of Elongator complex protein 1 (ELP1, also referred to as IKBKAP) concentration in cell lysates using the HTRF® (Homogeneous Time-Resolved Fluorescence) technology. IKBKAP is detected in a sandwich HTRF assay by use of an anti-IKAP antibody labeled with a donor and an anti-IKAP antibody labeled with an acceptor.
Cells were thawed and incubated in DMEM-10% FBS for 72 hours. Cells were trypsinized, counted, and re-suspended to a concentration of 50,000 cells/mL in DMEM-10% FBS. A 199 μL, aliquot of the cell suspensions were plated at 10,000 cells per well in a 96 well microtiter plate and incubated for 3 to 5 hours. […] Test compounds were serially diluted 3.16-fold in 100% DMSO to generate a 7-point concentration curve. A 1 μL aliquot of 200× compound solution was transferred to cell-containing wells, and cells were incubated for 48 hours in a cell culture incubator (37° C., 5% CO2, 100% relative humidity). Triplicate samples were set up for each compound concentration. After 48 hours, the supernatant was removed from the cells and 50 μL of the 1× LB4 lysis buffer, containing protease inhibitors, was added to the cells and incubated with shaking at room temperature for 1 hour. A 36 μL aliquot of this lysate was subsequently transferred to the 384-well plate containing 4 μL of the antibody solution (1:50 dilution of anti IKAP d2 and anti-IKAP K(9+8) in detection buffer). The 384-well plate was then centrifuged for 1 minute to bring the solutions to the bottom of the plate and incubated overnight at 4° C. Fluorescence for each well of the plate at 665 nm and 620 nm was measured was on the EnVision plate reader (Perkin Elmer). The AF for each sample is calculated by: […]
wherein Signal is the normalized fluorescence for each sample well and Blank is the average normalized average fluorescence for the Blank control wells.
The maximum fold increase (MFI) in IKBKAP protein abundance for compounds of Formula (I) or a form thereof relative to the vehicle control are provided in Table 1. MFI was calculated by dividing the AF value for each sample well by the sample AF for the vehicle control wells.
The EC2× for IKBKAP protein expression obtained from the 7-point concentration curve generated for each test compound according to the protocol in Biological Example 1 are also provided in Table 1. The term “EC2× for IKBKAP protein expression” is defined as the concentration of test compound that is effective in producing two times the amount of IKBKAP protein in a FD patient cell compared to the amount produced from the DMSO vehicle control.

| Structure (SMILES) | EC2x for IKBKAP protein expression (concentration producing two times the amount of IKBKAP protein vs DMSO vehicle control) | MFI (maximum fold increase in IKBKAP protein abundance relative to the vehicle control) |
| --- | --- | --- |
| CC[C@H](N)Cc1sc2c(NCc3sccc3F)nc(Cl)nc2c1C [Cpd 91, 6-[(2S)-2-aminobutyl]-2-chloro-N-[(3-fluorothiophen-2-yl)methyl]-7-methylthieno[3,2-d]pyrimidin-4-amine] | **** (between >0.005 μM and ≤0.02 μM) | ***** (>4.9) |
| Cc1c([C@H](C)N)sc2c(NCc3ccco3)nc(Cl)nc12 [Cpd 47, 6-[(1S)-1-aminoethyl]-2-chloro-N-[(furan-2-yl)methyl]-7-methylthieno[3,2-d]pyrimidin-4-amine] | *** (between >0.02 μM and ≤0.5 μM) | *** (between >2.9 and <3.9) |
| Cc1c(C[C@H](C)N)sc2c(NCc3sccc3F)nc(Cl)nc12 [Cpd 90, 6-[(2S)-2-aminopropyl]-2-chloro-N-[(3-fluorothiophen-2-yl)methyl]-7-methylthieno[3,2-d]pyrimidin-4-amine] | ***** (<0.005 μM) | ***** (>4.9) |
| Cc1c(C[C@H](C)N)sc2c(NCc3ccc(F)s3)nc(Cl)nc12 [Cpd 33, 6-[(2S)-2-aminopropyl]-2-chloro-N-[(5-fluorothiophen-2-yl)methyl]-7-methylthieno[3,2-d]pyrimidin-4-amine] | **** (between >0.005 μM and ≤0.02 μM) | **** (between >3.9 and <4.9) |
| COC[C@H](N)Cc1sc2c(NCc3ccco3)nc(Cl)nc2c1C [Cpd 76, 6-[(2R)-2-amino-3-methoxypropyl]-2-chloro-N-[(furan-2-yl)methyl]-7-methylthieno[3,2-d]pyrimidin-4-amine] | ***** (<0.005 μM) | ***** (>4.9) |
| Cc1c(C2CNC2)sc2c(NCc3ccco3)nc(Cl)nc12 [Cpd 41, 6-(azetidin-3-yl)-2-chloro-N-[(furan-2-yl)methyl]-7-methylthieno[3,2-d]pyrimidin-4-amine] | *** (between >0.02 μM and ≤0.5 μM) | ** (between >1.9 and <2.9) |
| Cc1c(C[C@H](C)N)sc2c(NCc3cnco3)nc(Cl)nc12 [Cpd 75, 6-[(2S)-2-aminopropyl]-2-chloro-7-methyl-N-[(1,3-oxazol-5-yl)methyl]thieno[3,2-d]pyrimidin-4-amine] | *** (between >0.02 μM and ≤0.5 μM) | ***** (>4.9) |
| Cc1c(C[C@H](C)N)sc2c(NCc3ccncc3)nc(Cl)nc12 [Cpd 45, 6-[(2S)-2-aminopropyl]-2-chloro-7-methyl-N-[(pyridin-4-yl)methyl]thieno[3,2-d]pyrimidin-4-amine] | ***** (<0.005 μM) | ***** (>4.9) |
| Cc1c([C@@H](C)N)sc2c(NCc3ccco3)nc(Cl)nc12 [Cpd 94, 6-[(1R)-1-aminoethyl]-2-chloro-N-[(furan-2-yl)methyl]-7-methylthieno[3,2-d]pyrimidin-4-amine] | * (EC2×>1 μM) | * (MFI<1.9) |
| Cc1c(C[C@H](C)CO)sc2c(NCc3ccco3)nc(Cl)nc12 [Cpd 66, (2S)-3-(2-chloro-4-{[(furan-2-yl)methyl]amino}-7-methylthieno[3,2-d]pyrimidin-6-yl)-2-methylpropan-1-ol] | * (EC2×>1 μM) | * (MFI<1.9) |
| Cc1c(C[C@H](C)N)sc2c(NCc3ccccc3F)nc(Cl)nc12 [Cpd 44, 6-[(2S)-2-aminopropyl]-2-chloro-N-[(2-fluorophenyl)methyl]-7-methylthieno[3,2-d]pyrimidin-4-amine] | ***** (<0.005 μM) | ***** (>4.9) |
| Cc1c(C[C@H](C)N)sc2c(NCc3ccco3)nc(Cl)nc12 [Cpd 12, 6-[(2S)-2-aminopropyl]-2-chloro-N-[(furan-2-yl)methyl]-7-methylthieno[3,2-d]pyrimidin-4-amine] | ***** (<0.005 μM) | ***** (>4.9) |
| CC[C@H](N)Cc1cc2nc(Cl)nc(NCc3ccco3)c2s1 [Cpd 4, 6-[(2S)-2-aminobutyl]-2-chloro-N-[(furan-2-yl)methyl]thieno[3,2-d]pyrimidin-4-amine] | **** (between >0.005 μM and ≤0.02 μM) | **** (between >3.9 and <4.9) |
| Cc1c(C[C@H](C)N)sc2c(NCc3cccs3)nc(Cl)nc12 [Cpd 28, 6-[(2S)-2-aminopropyl]-2-chloro-7-methyl-N-[(thiophen-2-yl)methyl]thieno[3,2-d]pyrimidin-4-amine] | ***** (<0.005 μM) | ***** (>4.9) |
| Cc1c(C[C@H](C)N)sc2c(NCc3ncc(F)s3)nc(Cl)nc12 [Cpd 93, 6-[(2S)-2-aminopropyl]-2-chloro-N-[(5-fluoro-1,3-thiazol-2-yl)methyl]-7-methylthieno[3,2-d]pyrimidin-4-amine] | **** (between >0.005 μM and ≤0.02 μM) | ***** (>4.9) |
| Cc1c(C[C@H](C)N)sc2c(NCc3ncccn3)nc(Cl)nc12 [Cpd 55, 6-[(2S)-2-aminopropyl]-2-chloro-7-methyl-N-[(pyrimidin-2-yl)methyl]thieno[3,2-d]pyrimidin-4-amine] | *** (between >0.02 μM and ≤0.5 μM) | *** (between >2.9 and <3.9) |
| COc1ccc(-c2c(C[C@H](C)N)sc3c(NCc4ccco4)nc(Cl)nc23)cc1 [Cpd 65, 6-[(2S)-2-aminopropyl]-2-chloro-N-[(furan-2-yl)methyl]-7-(4-methoxyphenyl)thieno[3,2-d]pyrimidin-4-amine] | * (EC2×>1 μM) | * (MFI<1.9) |
| Cc1c(C[C@@H](N)CCF)sc2c(NCc3ccco3)nc(Cl)nc12 [Cpd 51, 6-[(2S)-2-amino-4-fluorobutyl]-2-chloro-N-[(furan-2-yl)methyl]-7-methylthieno[3,2-d]pyrimidin-4-amine] | ***** (<0.005 μM) | ***** (>4.9) |
| Cc1c(C[C@H](C)N)sc2c(NCc3ccno3)nc(Cl)nc12 [Cpd 39, 6-[(2S)-2-aminopropyl]-2-chloro-7-methyl-N-[(1,2-oxazol-5-yl)methyl]thieno[3,2-d]pyrimidin-4-amine] | *** (between >0.02 μM and ≤0.5 μM) | ***** (>4.9) |
| Cc1c(CCCN)sc2c(NCc3ccco3)nc(Cl)nc12 [Cpd 67, 6-(3-aminopropyl)-2-chloro-N-[(furan-2-yl)methyl]-7-methylthieno[3,2-d]pyrimidin-4-amine] | * (EC2×>1 μM) | * (MFI<1.9) |
| Cc1c(C[C@@H](N)CCO)sc2c(NCc3ccco3)nc(Cl)nc12 [Cpd 97, (3S)-3-amino-4-(2-chloro-4-{[(furan-2-yl)methyl]amino}-7-methylthieno[3,2-d]pyrimidin-6-yl)butan-1-ol] | ***** (<0.005 μM) | ***** (>4.9) |
